BindingDB's records for doi:10.1021/jm030528p (Encysive Pharmaceuticals, 2004)
pIC50: −log10 of the molar value.

Molecular target: Endothelin-1 receptor (Homo sapiens) (UniProt P25101)
Assay: Displacement of [125I]ET-1 from Endothelin A receptor

Chain of Endothelin-1 receptor (Homo sapiens) (P25101 whole entry, looked up): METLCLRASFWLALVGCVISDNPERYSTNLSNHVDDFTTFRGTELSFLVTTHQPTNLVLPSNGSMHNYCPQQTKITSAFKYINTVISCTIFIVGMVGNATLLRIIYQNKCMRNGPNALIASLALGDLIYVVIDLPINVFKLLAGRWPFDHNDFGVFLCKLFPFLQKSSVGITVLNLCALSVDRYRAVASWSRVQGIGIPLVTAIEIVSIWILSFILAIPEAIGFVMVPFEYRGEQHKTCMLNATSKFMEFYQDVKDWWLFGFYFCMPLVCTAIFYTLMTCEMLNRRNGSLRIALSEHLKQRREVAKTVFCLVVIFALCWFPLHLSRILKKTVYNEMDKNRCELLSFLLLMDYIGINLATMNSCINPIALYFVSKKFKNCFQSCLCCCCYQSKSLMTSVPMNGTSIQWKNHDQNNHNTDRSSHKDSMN

Cc1cc(C)c(NC(=O)c2sccc2S(=O)(=O)Nc2onc(C)c2Cl)c(C(C)N=O)c1 (stereo unspecified) [3-(4-Chloro-3-methyl-isoxazol-5-ylsulfamoyl)-thiophene-2-carboxylic acid [2-(1-hydroxyimino-ethyl)-4,6-dimethyl-phenyl]-amide]
pIC50: 10.70
